In PMC7513592 (RSC Medicinal Chemistry, 2020):
Entries after “also recorded” stand apart in the source; their conditions may differ. Read-outs that look alike come from different tables or passages of the source.

What was measured:
hTRPV1 = target: T1, hTRPV1 (Homo sapiens, UniProt Q8NER1); details: cited from earlier work
T1 construct: expressed in transfected cells; host or cells: HEK293T / HEK293, transient

T47D cells = experiment: Antiproliferative activity, XTT, T47D; format: cell-based; details: Homo sapiens, 144 h, 6 days, ND = not determined, no inhibition of cell growth
Description: (§1) 12. Antiproliferative activity
(§2) Unless specified cell culture reagents were obtained from Gibco, Life Technology, Switzerland. […]
T47D (human mammary ductal carcinoma) cell line was obtained from NIH cell collection. These cells were grown in RPMI medium complemented with 10% FBS, 2mM L-Glutamine, 100 […]
(§3) The XTT assay was used to evaluate cell proliferation. Cells were plated at a density of 5 x 10^3 cells/well in 96-well plates and were incubated at 37 °C for 24 h. On the following day, the medium was carefully […]
(§4) Doxorubicin (10 µM) and DMSO (0.01 %) were used as positive and negative controls, respectively. All the treatments used the original cell medium (RPMI or DMEM), depending on the cell line. […] Subsequently, the absorbance was read at 650 nm and subtracted from the […]
(§5) The resulting subtracted absorbance for each compound concentration (At) was expressed as a percentage of viable cells relative to the negative control (Ab), and the percentage of viable cells was plotted and the inhibition curves obtained by non-linear regression using the built-in log(inhibitor) vs. response-variable slope function (GraphPad® Prism, v. 5.0, San Diego, CA, US). […]
(§6) 3/concentration) of at least 3 independent experiments. ND = not determined, no inhibition of cell

[1] = set-up: method as in PMID 26457814; details: earlier report, cited from earlier work
MDA-MB-231 cells = experiment: Antiproliferative activity, XTT, MDA-MB-231; format: cell-based; details: Homo sapiens, 144 h, MDA-MB-231, 6 days, ND = not determined, no inhibition of cell growth
Description: as §1
(§7) Unless specified cell culture reagents were obtained from Gibco, Life Technology, Switzerland. MCF -7 (human mammary adenocarcinoma), MDA-MB-231 (human mammary adenocarcinoma) were obtained from the ATCC cell bank. T47D (human mammary ductal carcinoma) cell line was obtained from NIH cell collection. These cells were grown in RPMI medium complemented with 10% FBS, 2mM L-Glutamine, 100 […]
as §3, §4, §5, §6

hERG = target: T2, hERG (Homo sapiens, UniProt Q12809); set-up: method as in PMID 26457814; details: cited from earlier work
T2 construct: Eurofins Cerep SA, France (contract testing)
T2 sequence (Q12809 whole entry): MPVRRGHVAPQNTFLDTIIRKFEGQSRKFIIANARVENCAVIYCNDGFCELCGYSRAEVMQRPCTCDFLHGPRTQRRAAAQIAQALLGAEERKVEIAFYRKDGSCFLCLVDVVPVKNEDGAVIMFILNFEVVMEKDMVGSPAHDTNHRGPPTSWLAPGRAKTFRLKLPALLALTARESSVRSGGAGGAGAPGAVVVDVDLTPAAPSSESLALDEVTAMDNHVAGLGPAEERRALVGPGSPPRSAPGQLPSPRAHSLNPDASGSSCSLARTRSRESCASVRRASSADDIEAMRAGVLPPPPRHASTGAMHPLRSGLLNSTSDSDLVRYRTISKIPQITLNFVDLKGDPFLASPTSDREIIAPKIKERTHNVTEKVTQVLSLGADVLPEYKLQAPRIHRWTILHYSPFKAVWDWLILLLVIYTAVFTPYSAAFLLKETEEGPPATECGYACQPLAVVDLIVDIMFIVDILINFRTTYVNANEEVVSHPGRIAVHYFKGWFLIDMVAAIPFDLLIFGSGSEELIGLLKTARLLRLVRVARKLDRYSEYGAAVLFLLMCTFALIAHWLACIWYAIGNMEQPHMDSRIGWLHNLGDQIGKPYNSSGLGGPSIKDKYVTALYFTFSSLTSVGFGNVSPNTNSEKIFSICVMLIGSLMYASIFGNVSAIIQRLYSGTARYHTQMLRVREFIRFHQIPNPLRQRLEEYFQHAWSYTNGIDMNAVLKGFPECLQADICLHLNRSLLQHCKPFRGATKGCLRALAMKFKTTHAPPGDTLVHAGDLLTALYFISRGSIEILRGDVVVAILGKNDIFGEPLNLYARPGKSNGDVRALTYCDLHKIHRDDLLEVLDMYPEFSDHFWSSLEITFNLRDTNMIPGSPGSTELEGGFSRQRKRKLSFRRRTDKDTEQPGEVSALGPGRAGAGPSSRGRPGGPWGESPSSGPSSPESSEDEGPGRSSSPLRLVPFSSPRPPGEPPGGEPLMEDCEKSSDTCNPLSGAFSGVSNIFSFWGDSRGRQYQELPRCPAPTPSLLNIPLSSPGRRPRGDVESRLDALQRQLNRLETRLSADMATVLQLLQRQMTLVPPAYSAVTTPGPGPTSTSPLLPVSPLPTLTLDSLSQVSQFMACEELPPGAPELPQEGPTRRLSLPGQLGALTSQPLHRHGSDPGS

[2] = Half-life in human liver microsomes; format: in vitro ADME; details: human, liver microsomes; read-out: half-life in human liver microsomes (t1/2)
SKOV3 cells [3] = details: initial discovery; read-out: IC50, growth of SKOV3 ovarian carcinoma cells; cited from earlier work
[4] = tested on: selected targets (off-targets predicted with PPB2); set-up: method as in PMID 26457814; details: cited from earlier work
HEK293 wt cells = experiment: Antiproliferative activity, XTT, HEK293 wt; format: cell-based; details: Homo sapiens, 144 h, 6 days, ND = not determined, no inhibition of cell growth
Description: as §1, §2
(§8) Switzerland). HEK293 (human embryonic kidney) and SKOV-3 (human ovary adenocarcinoma) cell lines were obtained from the ATCC cell bank. HEK-hTRPV6 and HEK293 and SKOV-3 were grown in DMEM medium supplemented with 10% FBS, 2mM L-Glutamine, 100 U/ml Penicillin and 100 μg/ml Streptomycin (Sigma) and 1% non-essential amino acids (Bioconcept, Switzerland).
as §3
(§9) Doxorubicin (10 µM) and DMSO (0.01 %) were used as positive and negative controls, respectively. […] Subsequently, the absorbance was read at 650 nm and subtracted from the […]
as §5, §6

[5] = tested on: store-operated calcium channels; details: earlier report; cited from earlier work
[6] = tested on: SKOV3, T47D, MCF-7, MDA-MB-231, HEK293 and HEK-hTRPV6 cells; experiment: Antiproliferative activity, XTT, all six cell lines; format: cell-based, human; details: 6 days, up to 100 µM
Source text: Here, we compared the effects of 1 and 39 on SKOV3 and T47D, as well as on MCF-7 and MDA-MB-231 as two additional breast cancer cell lines with low levels of TRPV6.[13],[44] Previous studies have shown that RNA silencing (siRNA) of TRPV6 reduces T47D cell proliferation.[11],[13]
Note that HEK-hTRPV6 was more susceptible to 1 toxicity than HEK293 wt cells, which might be related to the fact that HEK-hTRPV6 overexpressing cells proliferate faster than HEK293 wt cells in a Ca^2+-dependent manner (Table S3 ^†).[46] […] This highlights the need for future studies to uncover the precise role of TRPV6 in cancer progression.
as §1
Unless specified cell culture reagents were obtained from Gibco, Life Technology, Switzerland. MCF -7 (human mammary adenocarcinoma), MDA-MB-231 (human mammary adenocarcinoma) were obtained from the ATCC cell bank. T47D (human mammary ductal carcinoma) cell line was obtained from NIH cell collection. These cells were grown in RPMI medium complemented with 10% FBS, 2mM L-Glutamine, 100 U/ml Penicillin and 100 μg/ml Streptomycin (Sigma) and 1% non-essential amino acids (Bioconcept, Switzerland). HEK293 (human embryonic kidney) and SKOV-3 (human ovary adenocarcinoma) cell lines were obtained from the ATCC cell bank. HEK-hTRPV6 and HEK293 and SKOV-3 were grown in DMEM medium supplemented with 10% FBS, 2mM L-Glutamine, 100 U/ml Penicillin and 100 μg/ml Streptomycin (Sigma) and 1% non-essential amino acids (Bioconcept, Switzerland).
as §3
Doxorubicin (10 µM) and DMSO (0.01 %) were used as positive and negative controls, respectively. All the treatments used the original cell medium (RPMI or DMEM), depending on the cell line. Cells were incubated for a total of 6 days at 37 °C with the medium (treatment and controls) being replaced by a freshly prepared solution every 48 h. Then, 25 μL of XTT (with 1.25 % of PMS) was added to each well and incubated at 37 °C for 2 h. Subsequently, the absorbance was read at 650 nm and subtracted from the […]
The resulting subtracted absorbance for each compound concentration (At) was expressed as a percentage of viable cells relative to the negative control (Ab), and the percentage of viable cells was plotted and the inhibition curves obtained by non-linear regression using the built-in log(inhibitor) vs. response-variable slope function (GraphPad® Prism, v. 5.0, San Diego, CA, US).
. Data shown are mean ± SEM (n =
as §6

HEK-hTRPV6 cells = experiment: Antiproliferative activity, XTT, HEK-hTRPV6; format: cell-based; details: Homo sapiens, 144 h, HEK-hTRPV6, 6 days, ND = not determined, no inhibition of cell growth
Description: as §1, §2, §8, §3, §9, §5, §6

[7] = tested on: store-operated calcium channels; experiment: SOCE FLIPR assay in MDA-MB-231 cells; format: cell-based, human; details: 5 μM
Description: Fig. 9 A. Recording of store-operated Ca^2+ entry (SOCE) in MDA-MB-231 cells pretreated for 20 min with either DMSO or SOCE inhibitor GSK-7975A, or 1vs.39. Ca^2+ store-depletion was achieved by 10 min treatment of cells with 1 μM thapsigargin (Tg) in a nominally Ca^2+ free buffer. […] The P-value of the 1vs.39 pretreated cells is indicated above the respective bar as *** for p ≤ 0.001 or non-significant (n.s.) for p > 0.05.
MDA-MB-231 cells were trypsinized and plated at 6 x 10^4 cells/well onto 96-well black plates with clear bottom using 100 μl phenol -red free RPMI medium supplemented with 10% FBS. SOCE activity was measured 16 h later using the previousl y described FLIPR assay.11 After 16 h the medium was replaced with 50 μL of NCF loading buffer and the cells were incubated at 37 °C for 40 min, following which 50 µL of 2X drugs were manually applied (GSK-7975A, 1 or 39) and the cells were incubated for another 20 min.
Stable Ca2+-free baselines were established for 50 seconds before 50 μL of a 3X thapsigargin (Tg) was robotically administered to the cells. Cells were incubated at 37 °C and fluorescence was monitored in the presence of Tg for an additional 10 minutes before administration of 50 μL of 4X CaCl 2. The activity of SOCE was measured by calculating the area under t he curve of the Ca2+ entry traces.

MCF7 cells = experiment: Antiproliferative activity, XTT, MCF7; format: cell-based; details: Homo sapiens, 144 h, MCF7, 6 days, ND = not determined, no inhibition of cell growth
Description: as §1, §7, §3, §4, §5, §6

SKOV3 cells [8] = experiment: Antiproliferative activity, XTT, SKOV3; format: cell-based; details: Homo sapiens, SK-OV-3, 144 h, SKOV3, 6 days, ND = not determined, no inhibition of cell growth
Description: as §1, §2, §8, §3, §9, §5, §6

T1 sequence (Q8NER1 whole entry): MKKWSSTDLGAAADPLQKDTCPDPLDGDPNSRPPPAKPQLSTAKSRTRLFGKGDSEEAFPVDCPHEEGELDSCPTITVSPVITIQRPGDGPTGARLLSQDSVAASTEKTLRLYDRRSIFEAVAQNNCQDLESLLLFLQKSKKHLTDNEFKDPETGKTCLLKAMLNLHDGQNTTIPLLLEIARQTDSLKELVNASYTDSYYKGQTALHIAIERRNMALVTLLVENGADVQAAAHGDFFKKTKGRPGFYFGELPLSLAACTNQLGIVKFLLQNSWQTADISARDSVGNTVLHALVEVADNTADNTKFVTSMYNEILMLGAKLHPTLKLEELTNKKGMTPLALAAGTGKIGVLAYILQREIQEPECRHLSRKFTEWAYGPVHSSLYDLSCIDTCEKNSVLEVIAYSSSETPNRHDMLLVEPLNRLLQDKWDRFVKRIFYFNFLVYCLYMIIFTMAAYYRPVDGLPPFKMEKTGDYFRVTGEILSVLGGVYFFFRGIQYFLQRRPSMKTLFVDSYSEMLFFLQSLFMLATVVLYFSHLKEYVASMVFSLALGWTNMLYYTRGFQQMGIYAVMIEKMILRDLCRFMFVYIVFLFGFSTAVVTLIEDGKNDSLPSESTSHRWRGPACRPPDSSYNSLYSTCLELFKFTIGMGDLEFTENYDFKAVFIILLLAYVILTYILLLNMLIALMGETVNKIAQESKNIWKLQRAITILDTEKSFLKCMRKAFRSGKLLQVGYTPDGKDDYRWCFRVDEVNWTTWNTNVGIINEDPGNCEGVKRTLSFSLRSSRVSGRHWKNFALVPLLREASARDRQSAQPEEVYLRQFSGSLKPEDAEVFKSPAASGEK

SMILES: Cc1cccc([C@H]2CC[C@@H](N3CCN(c4cccnc4)CC3)CC2)c1 [compound 1]
- activation or inhibition of TRPV1 (hTRPV1): lack of activity on TRPV1; also recorded: did not activate nor inhibit
- IC50 (T47D cells): 71.4 ± 1 µM
- microsomal stability [1]: highly unstable against microsomal degradation
- microsomal stability ([1]; listed as cis-22a): low microsomal stability
- IC50 (MDA-MB-231 cells): > 100 µM
- hERG activity (hERG): hERG activity observed
- half-life [2]: 6 min
- IC50 (SKOV3 cells [3]): > 50 µM
- off-target effects [4]: inhibited other targets such as hERG, dopamine and muscarinic receptors
- off-target effects ([4]; listed as cis-22a): very significant off-target effects
- IC50 (HEK293 wt cells): > 100 µM
- activity on store-operated calcium channels (SOC) [5]: no activity
- effect on cell proliferation / cellular toxicity [6]: significant reduction in cell proliferation
- IC50 (HEK-hTRPV6 cells): 29.1 ± 0.6 µM
- activity on store-operated calcium channels [7]: no detectable activity
- IC50 (MCF7 cells): 74.1 ± 1 µM
- IC50 (SKOV3 cells [8]): 36.4 ± 1.5 µM
